Source: patent US20200268728A1, “DRUG TARGETING CANCER STEM CELL” (Sumitomo Dainippon Pharma Co., Ltd., priority 2016, published 2020)
Structures can show the parent of a compound that is named as a salt. Where two headings read alike, the source gives them in different places.

How the values were obtained:
Format in all cases: cell-based, human
[1] = tested on: H460 cells; assay: Combination with Example 24, inhibitory effect on sphere-forming ability (Test Example 6); conditions: H460 sphere culture, test compound combined with Example 24 (2-1000 nmol/L), 4 days
[2] = tested on: HCT116 cells; assay: as above; conditions: HCT116 sphere culture, test compound combined with Example 24 (2-1000 nmol/L), 4 days
[3] = tested on: HCT-116 cells; assay: Test for inhibiting sphere-forming ability of cancer cells (Test Example 1); conditions: non-adherent serum-free sphere culture, 4 days, CellTiter-Glo, read-out: IC50 (μmol/L), Sphere IC50 value, concentration for 50% inhibition of cell proliferation
Protocol: The reliable methods established for measuring the self-renewal ability of cells which is one of the CSC's properties include a method for measuring the sphere-forming ability of cancer cells in non-adherent condition in the absence of serum (Cancer Res 65, 5506-5511 (2005)). HCT-116 cells were available from the American Type Culture Collection (ATCC). HCT-116 cells were cultured at 37° C. and 5% CO2 using the McCoy's 5a medium containing 10% fetal bovine serum (FBS), 100 U/ml penicillin, and 100 μg/ml streptomycin. HCT-116 cells were seeded in a 384 Well Black Clear Bottom Ultra-Low Attachment Microplate (Corning Cat. No. 3827) in an amount of 350-800 cells/well using the DMEM/F12 medium containing 2% B27 supplement (GIBCO), 20 ng/mL epidermal growth factor (EGF) (peprotech), 10 ng/mL basic fibroblast growth factor (bFGF) (peprotech), 5 μg/mL insulin (Sigma), and 1% penicillin/streptomycin. The test compounds were added into each well to adjust the final concentration of DMSO to 0.1%, and the cells were cultured for 4 days. The number of viable cells in each well was then measured with CellTiter-Glo® Luminescent Cell Viability Assay (Promega) to calculate the concentration of each test compound for 50% inhibition of cell proliferation (Sphere IC50 value; μmol/L).
The experiment of Test Example 1 was performed for the compounds of each Example.

IC50 ([3]; Homo sapiens, 96 h)	Compound	sCI, minimum (Ld)/(Lc) [1]	sCI, minimum (Ld)/(Lc) [2]	further results
	COc1ccc(-c2ccc3c(N4CCOC[C@@H]4C)nc(N4CCOC[C@@H]4C)nc3n2)cc1CO [AZD8055]	0.651		
	CCN(CC)CCNC(=O)c1c(C)[nH]c(/C=C2\C(=O)Nc3ccc(-c4csc(-c5ccccc5)n4)cc32)c1C [Amcasertib]		0.017	
	CC(C)c1c(C(=O)Nc2ccccc2)c(-c2ccccc2)c(-c2ccc(F)cc2)n1CC[C@@H](O)C[C@@H](O)CC(=O)O [Atorvastatin]		0.3	
	CC[C@@H]1C(=O)N(C)c2cnc(Nc3ccc(C(=O)NC4CCN(C)CC4)cc3OC)nc2N1C1CCCC1 [BI 2536]		0.623	
	Cc1c(NC(=O)OC[C@@H]2COCCN2)cn2ncnc(Nc3ccc4c(cnn4Cc4cccc(F)c4)c3)c12 [BMS-599626]	0.081		
	Cc1c[nH]c(-c2cnc(NCCNc3ccc(C#N)cn3)nc2-c2ccc(Cl)cc2Cl)n1 [CHIR-99021]	0.378		
	Cc1nc(Nc2ncc(C(=O)Nc3c(C)cccc3Cl)s2)cc(N2CCN(CCO)CC2)n1 [Dasatinib]	0.514	0.171	
	C=C1/C(=C\C=C2/CCC[C@]3(C)[C@@H]([C@H](C)/C=C/[C@H](C)C(C)C)CC[C@@H]23)C[C@@H](O)C[C@@H]1O [Doxercalciferol]	0.304		
	COc1ccc(C(=O)Nc2cn(Cc3ccc(F)cc3F)cn2)cc1OC [Example 12, N-[1-(2,4-difluorobenzyl)-1H-imidazol-4-yl]-3,4-dimethoxybenzamide]			IC50 [3]: 0.09 µmol/L
0.03 µmol/L	O=C(Nc1cn(Cc2cccc(C(F)(F)F)c2)cn1)c1ccc(CO)cn1 [Example 15, 5-(Hydroxymethyl)-N-{1-[3-(trifluoromethyl)benzyl]-1H-imidazol-4-yl}picolinamide]			
0.024 µmol/L	O=C(Nc1cn(Cc2cccc(C(F)(F)F)c2)cn1)c1csc(CO)n1 [Example 18]			
0.077 µmol/L	O=C(Nc1cn(Cc2cc(F)c(F)c(F)c2)cn1)c1csc(CO)n1 [Example 19]			
0.007 µmol/L	O=C(Nc1cn(Cc2cc(F)c(F)c(F)c2)cn1)c1ccc(CO)nc1 [Example 20, 6-(Hydroxymethyl)-N-[1-(3,4,5-trifluorobenzyl)-1H-imidazol-4-yl]nicotinamide]			
0.056 µmol/L	O=C(Nc1cn(Cc2cccc(Cl)c2)cn1)c1ccc(CO)nc1 [Example 21]			
< 0.01 µmol/L	O=C(Nc1cn(Cc2cccc(C(F)(F)F)c2)cn1)c1ccc(CO)nc1 [Example 22, 6-(hydroxymethyl)-N-{1-[3-(trifluoromethyl)benzyl]-1H-imidazol-4-yl}nicotinamide]			
< 0.01 µmol/L	O=C(Nc1cn(Cc2cccc(C(F)(F)F)c2)cn1)c1cnc(CO)c(C(F)F)c1 [Example 23, 5-(difluoromethyl)-6-(hydroxymethyl)-N-{1-[3-(trifluoromethyl)benzyl]-1H-imidazol-4-yl}nicotinamide]			
0.07 µmol/L	O=C(Nc1cn(Cc2cccc(C(F)(F)F)c2)cn1)c1cnc(CO)c(C(F)(F)F)c1 [Example 25]			
0.053 µmol/L	O=C(Nc1cn(Cc2cccc(C(F)(F)F)c2)cn1)c1cnc(CO)cn1 [Example 26]			
0.653 µmol/L	O=C(Nc1cn(Cc2cccc(C(F)(F)F)c2)cn1)c1cc(CO)on1 [Example 27]			
< 0.01 µmol/L	O=C(Nc1ccc(CO)nc1)c1cn(Cc2cc(F)c(F)c(F)c2)cn1 [Example 28, N-[6-(Hydroxymethyl)pyridin-3-yl]-1-(3,4,5-trifluorobenzyl)-1H-imidazole-4-carboxamide]			
0.079 µmol/L	O=C(Nc1ccc2nc(CO)ccc2c1)c1cn(Cc2cc(F)c(F)c(F)c2)cn1 [Example 29]			
0.66 µmol/L	O=C(Nc1ccc2c(c1)CCCN2)c1cn(Cc2cc(F)c(F)c(F)c2)cn1 [Example 33, N-(1,2,3,4-Tetrahydroquinolin-6-yl)-1-(3,4,5-trifluorobenzyl)-1H-imidazole-4-carboxamide dihydrochloride]			
< 0.01 µmol/L	Cc1cc(C(=O)Nc2cn(Cc3cc(F)c(F)c(F)c3)cn2)cnc1CO [Example 55, 6-(Hydroxymethyl)-5-methyl-N-[1-(3,4,5-trifluorobenzyl)-1H-imidazol-4-yl]nicotinamide]			
0.029 µmol/L	Nc1cc(C(=O)Nc2cn(Cc3cccc(C(F)(F)F)c3)cn2)cnc1CO [Example 58, 5-Amino-6-(hydroxymethyl)-N-{1-[3-(trifluoromethyl)benzyl]-1H-imidazol-4-yl}nicotinamide]			
0.01 µmol/L	Nc1cc(C(=O)Nc2cn(Cc3cc(F)c(F)c(F)c3)cn2)cnc1CO [Example 59, 5-amino-6-(hydroxymethyl)-N-[1-(3,4,5-trifluorobenzyl)-1H-imidazol-4-yl]nicotinamide]			
	CCCCCCCCc1ccc(CCC(N)(CO)CO)cc1 [Fingolimod]	0.007	0.013	

IC50 ([3]; Homo sapiens, 96 h)	Compound	sCI, minimum (Ld)/(Lc) [1]	sCI, minimum (Ld)/(Lc) [2]	further results
	CC(C)n1c(/C=C/C(O)CC(O)CC(=O)O)c(-c2ccc(F)cc2)c2ccccc21 (centres unmarked) [Fluvastatin]		0.163	
	CCc1cc(Nc2nccc(-c3c(-c4ccc(OC)c(C(=O)Nc5c(F)cccc5F)c4)nc4ccccn34)n2)c(OC)cc1N1CCC(N2CCN(S(C)(=O)=O)CC2)CC1 [GSK1904529A]	0.166		
	Cc1cc2c(C(C)C)c(O)c(O)c(C=O)c2c(O)c1-c1c(C)cc2c(C(C)C)c(O)c(O)c(C=O)c2c1O [Gossypol]	0.026		
	Cn1cc(-c2ccc3nnc(C(F)(F)c4ccc5ncccc5c4)n3n2)cn1 [JNJ-38877605]	0.711		
	CC(C)(C)Cn1c(N)nc2ccc(-c3[nH]c(C(C)(C)C)nc3-c3ccc(F)cc3)nc21 [LY2228820]	0.020		
	CS(=O)(=O)CCNCc1ccc(-c2ccc3ncnc(Nc4ccc(OCc5cccc(F)c5)c(Cl)c4)c3c2)o1 [Lapatinib]	0.076	0.024	
	Cc1ccc(F)c(NC(=O)Nc2ccc(-c3cccc4[nH]nc(N)c34)cc2)c1 [Linifanib]	0.142		
	CC[C@H](C)C(=O)O[C@H]1C[C@@H](C)C=C2C=C[C@H](C)[C@H](CC[C@@H]3C[C@@H](O)CC(=O)O3)[C@H]21 [Lovastatin]		0.150	
	Cc1ccc(NC(=O)c2ccc(CN3CCN(C)CC3)cc2)cc1Nc1nc(-c2cccnc2)cs1 [Masitinib]	0.010		
	CC(=O)c1cc2c(o1)C(=O)c1ccccc1C2=O [Napabucasin]		0.159	
	COC1=CC(c2cc3ccccc3[nH]2)=N/C1=C\c1[nH]c(C)cc1C [Obatoclax]	0.061	0.103	
	COc1ccc(COc2cc3oc(=O)c4cc(C(C)O)ccc4c3cc2OC)cc1 (centres unmarked) [Palomid 529]	0.428		
	Cc1ccc(Nc2nccc(N(C)c3ccc4c(C)n(C)nc4c3)n2)cc1S(N)(=O)=O [Pazopanib]	0.507		
	CC[C@H](C)C(=O)O[C@H]1C[C@H](O)C=C2C=C[C@H](C)[C@H](CC[C@@H](O)C[C@@H](O)CC(=O)O)[C@H]21 [Pravastatin]		0.810	
	CN1CCC(CNc2ccc3ncc(-c4cccc(OC(F)(F)F)c4)n3n2)CC1 [SGI-1776]		0.026	
	O=C(Nc1ccccc1-c1cn2c(CN3CCNCC3)csc2n1)c1cnc2ccccc2n1 [SRT1720]		0.007	
	Cc1cccc(Nc2nc(-c3ccncc3)cs2)c1 [STF-62247]	0.221		
	CCC(C)(C)C(=O)O[C@H]1C[C@@H](C)C=C2C=C[C@H](C)[C@H](CC[C@@H]3C[C@@H](O)CC(=O)O3)[C@H]21 [Simvastatin]		0.257	
	CN1CCN(c2nc(C3=C(c4c[nH]c5ccccc45)C(=O)NC3=O)c3ccccc3n2)CC1 [Sotrastaurin]	0.030		
	CC/C(=C(\c1ccccc1)c1ccc(OCCN(C)C)cc1)c1ccccc1 [Tamoxifen]		0.046	
	C=CCNC1=C2C[C@@H](C)C[C@H](OC)[C@H](O)[C@@H](C)/C=C(\C)[C@H](OC(N)=O)[C@@H](OC)/C=C\C=C(/C)C(=O)NC(=CC1=O)C2=O [Tanespimycin]	0.386		
	COc1ccc2cc(-c3nc(-c4ccc([S+](C)[O-])cc4)[nH]c3-c3ccncc3)ccc2c1 (centres unmarked) [Tie2 kinase inhibitor]	0.123		
	Cn1cncc1[C@@](N)(c1ccc(Cl)cc1)c1ccc2c(c1)c(-c1cccc(Cl)c1)cc(=O)n2C [Tipifarnib]	0.564		
	CN(C)CCOc1ccc(/C(=C(/CCCl)c2ccccc2)c2ccccc2)cc1 [Toremifene]		0.020	
	O=C(CCCCCCC(=O)Nc1ccccc1)NO [Vorinostat]	0.573		
	Raloxifen		0.010	
